Test results as given in PubChem BioAssay AID1208 (EPA DSSTox, 2008).
The source made the active and inactive calls.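 The calls were made as follows: active = at least one rat sex group has a carcinogenic potency value and tumor site recorded; inconclusive = only rat studies were judged inadequate by the national testing program; inactive = no potency or tumor site, with negative rat experiments.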

Tested on: rat chronic carcinogenicity bioassay, TD50
Test: DSSTox (CPDBAS) Carcinogenic Potency Database Summary Rat Bioassay Results
Details: for Potency: stronger effect = lower value
Method in brief: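 The activity score maps log10(1/TD50_Rat_mmol) linearly onto 1–100; actives without a computed TD50, such as mixtures, receive 50. Source data are chronic rat carcinogenicity tests, using the most positive experiment for each sex.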

[1] = TD50_Rat_Note: no positive results
[2] = TD50_Rat_Note: no positive results, TargetSites_Rat_Female: no positive results
[3] = TD50_Rat_Note: TD50 is harmonic mean of more than one positive test, TargetSites_Rat_Female: liver
[4] = TargetSites_Rat_Female: no positive results
[5] = TD50_Rat_Note: only experiment is NCI/NTP bioassay inadequate, TargetSites_Rat_Female: NTP bioassay inadequate
[6] = TD50_Rat_Note: positive test results only by intraperitoneal or intravenous injection
[7] = TD50_Rat_Note: TD50 is harmonic mean of more than one positive test, TargetSites_Rat_Female: stomach
[8] = TD50_Rat_Note: TD50 is harmonic mean of more than one positive test, TargetSites_Rat_Female: mammary gland

SMILES: CC1(C)C(=O)Nc2ccc(C3=NNC(=O)CC3)cc21
- Potency (TD50_Rat_Note: TD50 is harmonic mean of more than one positive test, TargetSites_Rat_Female: adrenal gland): 2.01 mg/kg/day

SMILES: [Na+]
- outcome [1]: inactive; no positive results

SMILES: Cc1c(N)cccc1N
- outcome [2]: inactive; no positive results

SMILES: CC[C@H](OC(C)=O)C(C[C@H](C)N(C)C)(c1ccccc1)c1ccccc1
- Potency [3]: 68 mg/kg/day

SMILES: C=CCN(CC(O)CO)N=O (stereo unspecified)
- Potency (TargetSites_Rat_Female: esophagus, nasal cavity): 0.825 mg/kg/day

SMILES: C[C@H](CCc1ccccc1)NC[C@H](O)c1ccc(O)c(C(N)=O)c1
- outcome [2]: inactive; no positive results

SMILES: O=[N+]([O-])c1ccc(-c2cnc3ccccn23)o1
- Potency (TD50_Rat_Note: TD50 is harmonic mean of more than one positive test, TargetSites_Rat_Female: esophagus, kidney, mammary gland, stomach): 13.6 mg/kg/day

SMILES: COc1c2occc2cc2ccc(=O)oc12
- Potency [4]: 32.4 mg/kg/day

SMILES: CN(CCCC(O)c1cccnc1)N=O (stereo unspecified)
- Potency: 0.103 mg/kg/day

SMILES: CN(C)c1ccc(N=Nc2ccccc2)cc1
- Potency (TargetSites_Rat_Female: liver): 3.31 mg/kg/day

SMILES: S=C([S-])NCCNC(=S)[S-].[Mn+2]
- Potency (TargetSites_Rat_BothSexes: all tumor bearing animals): 157 mg/kg/day

SMILES: Cc1cc(Cc2ccc(N)c(C)c2)ccc1N
- Potency [3]: 7.38 mg/kg/day

SMILES: CC(=O)NCc1nc(-c2ccc([N+](=O)[O-])o2)no1
- Potency (TD50_Rat_Note: no positive results are statistically significant, TargetSites_Rat_Female: kidney, lung): 59.6 mg/kg/day

SMILES: CCN(CC)C(=O)/C(Cl)=C(\C)OP(=O)(OC)OC
- outcome [5]: ntp bioassay inadequate

SMILES: CCCCC(CC)COC(=O)CCCCC(=O)OCC(CC)CCCC (stereo unspecified)
- outcome [2]: inactive; no positive results

SMILES: S=c1[nH]c2ccccc2s1
- Potency (TD50_Rat_Note: TD50 is harmonic mean of more than one positive test, TargetSites_Rat_Female: adrenal gland, pituitary gland): 344 mg/kg/day

SMILES: Oc1ccc(Cl)cc1Cl
- outcome [2]: inactive; no positive results

SMILES: CC1CCC(C(C)C)C(O)C1 (stereo unspecified)
- outcome [2]: inactive; no positive results

SMILES: CN(CCCC(=O)O)N=O
- Potency: 0.982 mg/kg/day

SMILES: C1CCC(C(CC2CCCCN2)C2CCCCC2)CC1 (stereo unspecified)
- outcome [2]: inactive; no positive results

SMILES: O=NN(CCCC(F)(F)F)CCCC(F)(F)F
- Potency (TD50_Rat_Note: TD50 is harmonic mean of more than one positive test, TargetSites_Rat_Female: liver, lung): 0.748 mg/kg/day

SMILES: N[C@@H](Cc1c[nH]c2ccccc12)C(=O)O
- outcome [2]: inactive; no positive results

SMILES: O=C1Nc2ccc(Cl)cc2C(c2ccccc2)=NC1O (stereo unspecified)
- outcome [2]: inactive; no positive results

SMILES: CC(C)(Oc1ccc(C2CCCc3ccccc32)cc1)C(=O)O (stereo unspecified)
- Potency (TD50_Rat_Note: TD50 is harmonic mean of more than one positive test, greater than ten-fold variation among TD50 values for positive res, TargetSites_Rat_Female: liver): 11 mg/kg/day

SMILES: C[C@@H]1O[C@@]2(CS1)CN1CCC2CC1
- outcome [2]: inactive; no positive results

SMILES: CCOP(=S)(OCC)SC1OCCOC1SP(=S)(OCC)OCC (stereo unspecified)
- outcome [2]: inactive; no positive results

SMILES: N#[N+]c1cc(CCN)ccc1[O-]
- Potency: 37.6 mg/kg/day

SMILES: CC(=O)Nc1ccc2c(c1)C(=O)c1ccccc1-2
- Potency (TargetSites_Rat_Female: ear Zymbals gland, liver, mammary gland): 6.17 mg/kg/day

SMILES: O=C1c2ccccc2C(=O)c2c(O)c(O)cc(O)c21
- Potency: 678 mg/kg/day

SMILES: ClC(Cl)Br
- Potency (TD50_Rat_Note: TD50 is harmonic mean of more than one positive test, greater than ten-fold variation among TD50 values for positive res, TargetSites_Rat_Female: kidney, large intestine, liver): 72.5 mg/kg/day

SMILES: CNC(=O)c1c(N(C)N=O)ncn1C
- Potency (TargetSites_Rat_BothSexes: nasal cavity): 1 mg/kg/day

SMILES: CCC(CC)C(=O)NC(N)=O
- outcome [1]: inactive; no positive results

SMILES: O=C(O)C(Cl)Cl
- Potency (TD50_Rat_Note: TD50 is harmonic mean of more than one positive test): 161 mg/kg/day

SMILES: ON=C1CCCC1
- Potency: 40.9 mg/kg/day

SMILES: Nc1ccc2cc3ccc(N)cc3nc2c1
- outcome [5]: ntp bioassay inadequate

SMILES: CCC1C(=O)OCC1Cc1cncn1C (stereo unspecified)
- outcome [2]: inactive; no positive results

SMILES: COc1ccc(C)cc1N
- Potency (TD50_Rat_Note: TD50 is harmonic mean of more than one positive test, TargetSites_Rat_Female: nasal cavity, urinary bladder): 98 mg/kg/day

SMILES: Cc1ccc(NC(N)=O)cc1
- outcome [2]: inactive; no positive results

SMILES: ClC1=C(Cl)[C@]2(Cl)[C@@H]3[C@H]4C=CC(C4)[C@@H]3C1(Cl)C2(Cl)Cl
- outcome [2]: inactive; no positive results

SMILES: C/C=C1/C[C@@H](C)[C@@](C)(O)C(=O)OC/C2=C/CN(C)CC[C@@H](OC1=O)C2=O
- Potency [6]: 1.7 mg/kg/day

SMILES: CN(CCO)N=O
- Potency: 1.29 mg/kg/day

SMILES: CCN(Cc1cccc(S(=O)(=O)O)c1)c1ccc(C(=C2C=CC(=[N+](CC)Cc3cccc(S(=O)(=O)O)c3)C=C2)c2ccccc2S(=O)(=O)[O-])cc1
- outcome (TD50_Rat_Note: no positive results, TargetSites_Rat_BothSexes: no positive results): inactive

SMILES: C=CCOC(=O)CC(C)C
- Potency [4]: 123 mg/kg/day

SMILES: CC(O)c1ccccc1 (stereo unspecified)
- Potency [4]: 458 mg/kg/day

SMILES: CCc1nc(N)nc(N)c1-c1ccc(Cl)cc1
- outcome [2]: inactive; no positive results

SMILES: c1ccc(Nc2ccc(Nc3ccccc3)cc2)cc1
- outcome [2]: inactive; no positive results

SMILES: CN(C)[C@@H]1C(=O)C(C(N)=O)=C(O)[C@@]2(O)C(=O)C3=C(O)c4c(O)cccc4[C@@](C)(O)[C@H]3[C@H](O)[C@@H]12
- outcome [2]: inactive; no positive results

SMILES: O=C1NS(=O)(=O)c2ccccc21
- Potency (TD50_Rat_Note: TD50 is harmonic mean of more than one positive test, greater than ten-fold variation among TD50 values for positive res, TargetSites_Rat_Female: no positive results): 2140 mg/kg/day
- outcome [1]: inactive; no positive results

SMILES: CCCCCCc1ccc(O)cc1O
- outcome [2]: inactive; no positive results

SMILES: C[C@@H]1C[C@H]2[C@@H]3CCC4=CC(=O)C=C[C@]4(C)[C@@]3(F)[C@@H](O)C[C@]2(C)[C@@]1(O)C(=O)CO
- outcome [1]: inactive; no positive results

SMILES: C=CC(=O)OCC
- Potency [7]: 119 mg/kg/day

SMILES: NCC1(CC(=O)O)CCCCC1
- Potency [4]: 5850 mg/kg/day

SMILES: NNc1nc(-c2ccc([N+](=O)[O-])cc2)cs1
- Potency [8]: 3.21 mg/kg/day

SMILES: O=NN1CCCCCCCCCCCC1
- Potency [3]: 10.9 mg/kg/day

SMILES: Oc1cccc2cccnc12
- outcome [2]: inactive; no positive results

SMILES: COc1cc2c(c3oc4cccc(O)c4c(=O)c13)C1C=COC1O2 (stereo unspecified)
- Potency (TD50_Rat_Note: TD50 is harmonic mean of more than one positive test, greater than ten-fold variation among TD50 values for positive res, TargetSites_Rat_BothSexes: liver): 0.152 mg/kg/day

SMILES: c1ccccc1
- Potency (TD50_Rat_Note: TD50 is harmonic mean of more than one positive test, TargetSites_Rat_Female: ear Zymbals gland, nasal cavity, oral cavity, stomach, vascular system): 169 mg/kg/day

SMILES: CC(=O)Nc1ccc(-c2ccc(F)cc2)cc1
- Potency: 1.01 mg/kg/day

SMILES: O=C(O)c1ccccc1-c1c2cc(I)c(=O)c(I)c-2oc2c(I)c(O)c(I)cc12
- outcome [2]: inactive; no positive results

SMILES: COc1cc(/C=C/C(=O)OCCc2ccccc2)ccc1O
- outcome [1]: inactive; no positive results

SMILES: Cn1c(=O)c2c(ncn2C)n(C)c1=O
- outcome [2]: inactive; no positive results

SMILES: ClC1(Cl)C2(Cl)C3(Cl)C4(Cl)C(Cl)(Cl)C5(Cl)C3(Cl)C1(Cl)C5(Cl)C24Cl (stereo unspecified)
- Potency (TD50_Rat_Note: TD50 is harmonic mean of more than one positive test, TargetSites_Rat_Female: hematopoietic system, liver): 1.77 mg/kg/day

SMILES: O[C@@H]([C@H](O)[C@@H](O)CBr)[C@@H](O)CBr
- Potency (TD50_Rat_Note: positive test results only by intraperitoneal or intravenous injection, TD50 is harmonic mean of more than one positive, TargetSites_Rat_Female: mammary gland, peritoneal cavity): 27.6 mg/kg/day

SMILES: CCCCCC(N)=O
- outcome [2]: inactive; no positive results

SMILES: ClCc1ccccn1
- outcome [2]: inactive; no positive results

SMILES: CO[C@@]12[C@H](COC(N)=O)C3=C(C(=O)C(C)=C(N)C3=O)N1C[C@@H]1N[C@@H]12
- Potency (TD50_Rat_Note: positive test results only by intraperitoneal or intravenous injection, TD50 is harmonic mean of more than one positive, TargetSites_Rat_Female: peritoneal cavity): 0.00102 mg/kg/day

SMILES: CN(C)[C@@H]1C(=O)C(C(N)=O)=C(O)[C@@]2(O)C(=O)C3=C(O)c4c(O)cccc4[C@@](C)(O)[C@H]3C[C@@H]12
- outcome [2]: inactive; no positive results

SMILES: CCO
- Potency [4]: 9110 mg/kg/day

SMILES: Nc1ccc(Cl)c(N)c1
- Potency [4]: 315 mg/kg/day

SMILES: CC(=O)Nc1ccc(S(=O)(=O)c2ccc(NC(C)=O)cc2)cc1
- Potency (TD50_Rat_Note: no positive results are statistically significant, TargetSites_Rat_Female: mammary gland): 55.6 mg/kg/day

SMILES: CCNC(=O)N(CCO)N=O
- Potency [8]: 0.562 mg/kg/day

SMILES: IC(I)I
- outcome [2]: inactive; no positive results

SMILES: CC(I)C1OCC(CO)O1 (stereo unspecified)
- Potency [4]: 101 mg/kg/day

SMILES: CC(=O)CN(N=O)C(=O)NCCCl
- outcome [2]: inactive; no positive results

SMILES: c1cc(OCC2CO2)cc(OCC2CO2)c1 (stereo unspecified)
- Potency [7]: 3.78 mg/kg/day

SMILES: O=NN1CCNCC1
- Potency (TD50_Rat_Note: TD50 is harmonic mean of more than one positive test, no positive results are statistically significant, TargetSites_Rat_Female: all tumor bearing animals): 8.78 mg/kg/day

SMILES: CNC[C@H](O)c1cccc(O)c1
- outcome [2]: inactive; no positive results

SMILES: NC(N)=NC(N)=NCCc1ccccc1
- outcome [2]: inactive; no positive results

SMILES: CCCCCCCCCC[N+](C)(C)[O-]
- outcome [2]: inactive; no positive results

SMILES: ClCC1CO1 (stereo unspecified)
- Potency [7]: 2.96 mg/kg/day

SMILES: CCOP(=S)(OCC)Oc1ccc2c(C)c(Cl)c(=O)oc2c1
- outcome [2]: inactive; no positive results

SMILES: CN(C)c1ccc(C(=O)c2ccc(N(C)C)cc2)cc1
- Potency [3]: 5.64 mg/kg/day

SMILES: CCCCOCCO
- outcome [2]: inactive; no positive results

SMILES: CC(C)=NNc1ncc(-c2ccc([N+](=O)[O-])o2)s1
- Potency (TargetSites_Rat_Female: stomach): 6.05 mg/kg/day

SMILES: CCN(C#N)N=O
- Potency (TD50_Rat_Note: TD50 is harmonic mean of more than one positive test, TargetSites_Rat_Female: nasal cavity): 3.68 mg/kg/day

SMILES: S=C=NCCCc1ccccc1
- outcome [1]: inactive; no positive results

SMILES: O=NN1C[C@H](O)C[C@H]1C(=O)O
- outcome [2]: inactive; no positive results

SMILES: C=CCc1ccc2c(c1)OCO2
- Potency (TD50_Rat_Note: TD50 is harmonic mean of more than one positive test, TargetSites_Rat_BothSexes: liver): 441 mg/kg/day

SMILES: C=CCN(N=O)C(N)=O
- Potency (TD50_Rat_Note: TD50 is harmonic mean of more than one positive test, TargetSites_Rat_Female: mammary gland, stomach, uterus): 0.341 mg/kg/day

SMILES: C/C=C(\C)C(=O)O[C@@H]1CCN2CC=C(COC(=O)C(O)(C(C)C)C(C)O)[C@H]12 (stereo partly specified)
- Potency [6]: 1.91 mg/kg/day
